Here are results for five molecules from PMC5761851, “Application of a phenotypic drug discovery strategy to identify biological and chemical starting points for inhibition of TSLP production in lung epithelial cells” (PLoS ONE, 2018).

Assay in all cases: kinase selectivity panel
Assay type in all cases: biochemical

One experiment has as its target T1, p70S6K (Homo sapiens, UniProt P23443).
T1 construct: purchased Eurofins Pharma Discovery Services (KinaseProfiler; Cerep BioPrint panel)
The conditions noted are these: read-out: percentage of control activity (POC), p70S6K. In short, it runs like this: (§1)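 Single-point screen: 10 μM, duplicate, 125-kinase panel; follow-up IC50 from 9-point titration in duplicate for chosen hits.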

In the next experiment the target is T2, PKCε (Homo sapiens, UniProt Q02156).
T2 construct: purchased Eurofins Pharma Discovery Services (KinaseProfiler; Cerep BioPrint panel)
T2 sequence (Q02156 1-737): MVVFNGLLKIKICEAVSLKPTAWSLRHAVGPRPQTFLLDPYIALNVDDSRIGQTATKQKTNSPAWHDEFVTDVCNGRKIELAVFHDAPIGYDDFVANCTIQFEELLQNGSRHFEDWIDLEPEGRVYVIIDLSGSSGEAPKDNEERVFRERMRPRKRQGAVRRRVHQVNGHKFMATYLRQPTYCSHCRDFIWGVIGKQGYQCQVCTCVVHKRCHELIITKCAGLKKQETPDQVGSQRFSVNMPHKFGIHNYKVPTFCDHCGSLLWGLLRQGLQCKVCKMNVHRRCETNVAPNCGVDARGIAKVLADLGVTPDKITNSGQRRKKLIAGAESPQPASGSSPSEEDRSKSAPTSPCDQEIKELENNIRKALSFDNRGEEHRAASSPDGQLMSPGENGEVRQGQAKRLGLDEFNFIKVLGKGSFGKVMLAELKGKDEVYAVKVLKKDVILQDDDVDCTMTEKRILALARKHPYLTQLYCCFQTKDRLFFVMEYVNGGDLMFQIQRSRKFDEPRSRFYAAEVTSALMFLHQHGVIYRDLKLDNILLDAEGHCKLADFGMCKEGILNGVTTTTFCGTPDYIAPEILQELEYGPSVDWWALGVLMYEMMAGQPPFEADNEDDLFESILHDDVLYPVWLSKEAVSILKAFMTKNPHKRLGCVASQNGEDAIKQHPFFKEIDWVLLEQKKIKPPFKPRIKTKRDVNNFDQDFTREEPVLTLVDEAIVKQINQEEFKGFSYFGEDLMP
The conditions noted are these: read-out: percentage of control activity (POC), PKCε. In short, it runs like this:
as §1

A further experiment has as its target T3, mTOR (Homo sapiens, UniProt P42345).
T3 construct: Eurofins Pharma Discovery Services (contract assay service)
The conditions noted are these: for remaining activity at 10 µM: read-out: percentage of control activity (POC), mTOR. Put shortly:
as §1

The next experiment concerns the target T4, PRAK (Homo sapiens, UniProt Q8IW41).
T4 construct: purchased Eurofins Pharma Discovery Services (KinaseProfiler; Cerep BioPrint panel)
T4 sequence (Q8IW41 1-473): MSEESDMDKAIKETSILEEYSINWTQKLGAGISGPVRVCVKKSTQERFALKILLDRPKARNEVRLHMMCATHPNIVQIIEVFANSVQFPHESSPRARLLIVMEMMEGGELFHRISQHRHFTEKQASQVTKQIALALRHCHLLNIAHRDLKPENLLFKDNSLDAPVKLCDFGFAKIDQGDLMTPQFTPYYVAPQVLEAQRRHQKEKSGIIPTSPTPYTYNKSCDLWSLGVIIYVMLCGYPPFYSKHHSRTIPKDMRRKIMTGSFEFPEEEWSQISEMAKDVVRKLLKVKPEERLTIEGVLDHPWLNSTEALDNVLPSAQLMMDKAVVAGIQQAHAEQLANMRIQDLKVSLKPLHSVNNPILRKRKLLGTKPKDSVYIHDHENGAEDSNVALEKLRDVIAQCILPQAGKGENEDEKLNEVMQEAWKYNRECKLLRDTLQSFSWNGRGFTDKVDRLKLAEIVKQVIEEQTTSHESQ
The conditions noted are these: read-out: percentage of control activity (POC), PRAK. Put shortly: as §1

For another experiment, the target named is T5, MuSK (Homo sapiens, UniProt O15146).
T5 construct: purchased Eurofins Pharma Discovery Services (KinaseProfiler; Cerep BioPrint panel)
T5 sequence (O15146 24-869): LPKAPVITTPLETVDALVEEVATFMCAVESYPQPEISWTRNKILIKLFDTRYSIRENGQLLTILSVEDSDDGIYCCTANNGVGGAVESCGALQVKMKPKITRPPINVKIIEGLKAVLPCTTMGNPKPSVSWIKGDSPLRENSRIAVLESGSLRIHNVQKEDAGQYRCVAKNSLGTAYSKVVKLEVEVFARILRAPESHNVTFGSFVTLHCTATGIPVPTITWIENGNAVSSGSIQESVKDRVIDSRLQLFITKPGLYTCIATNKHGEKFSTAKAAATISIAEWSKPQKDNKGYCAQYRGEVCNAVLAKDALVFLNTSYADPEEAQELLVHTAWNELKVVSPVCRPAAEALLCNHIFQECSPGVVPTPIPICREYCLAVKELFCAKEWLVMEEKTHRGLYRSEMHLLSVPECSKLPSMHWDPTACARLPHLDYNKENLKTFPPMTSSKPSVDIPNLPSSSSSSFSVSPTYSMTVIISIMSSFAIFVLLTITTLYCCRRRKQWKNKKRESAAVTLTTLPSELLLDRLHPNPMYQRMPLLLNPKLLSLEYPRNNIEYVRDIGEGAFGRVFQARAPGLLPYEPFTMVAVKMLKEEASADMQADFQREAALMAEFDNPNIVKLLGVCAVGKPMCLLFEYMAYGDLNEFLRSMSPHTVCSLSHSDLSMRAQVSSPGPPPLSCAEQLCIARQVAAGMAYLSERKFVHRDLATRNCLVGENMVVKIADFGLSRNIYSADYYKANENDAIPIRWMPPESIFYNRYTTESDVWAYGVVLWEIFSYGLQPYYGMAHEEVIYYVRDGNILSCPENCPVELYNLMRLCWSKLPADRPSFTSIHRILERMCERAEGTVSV
The conditions noted are these: read-out: percentage of control activity (POC), MuSK. In short, it runs like this: as §1

Several values for one entry are separate records, joined by “and”; a condition that tells them apart may be missing. Equal entries are not always repeated.

In general, inhibition refers to the relative decrease from the control value, in per cent. The low end stands for a response near the control, the high end for a response far below the control. By IC50 is commonly meant the concentration that inhibits the measured activity by half.

T1 sequence (P23443 whole entry): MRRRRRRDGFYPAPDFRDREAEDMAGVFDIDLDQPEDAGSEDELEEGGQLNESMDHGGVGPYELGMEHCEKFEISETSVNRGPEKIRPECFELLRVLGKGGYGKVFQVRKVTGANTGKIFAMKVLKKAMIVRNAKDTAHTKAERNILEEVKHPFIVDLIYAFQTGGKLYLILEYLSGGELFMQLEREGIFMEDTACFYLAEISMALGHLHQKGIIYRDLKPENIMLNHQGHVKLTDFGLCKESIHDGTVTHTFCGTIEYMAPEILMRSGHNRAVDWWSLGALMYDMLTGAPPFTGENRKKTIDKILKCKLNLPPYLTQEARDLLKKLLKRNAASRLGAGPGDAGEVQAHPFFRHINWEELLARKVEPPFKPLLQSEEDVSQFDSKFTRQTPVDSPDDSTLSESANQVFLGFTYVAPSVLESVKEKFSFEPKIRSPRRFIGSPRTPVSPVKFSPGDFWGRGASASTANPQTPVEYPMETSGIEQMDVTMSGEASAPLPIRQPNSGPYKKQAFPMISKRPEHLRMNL

For `CC(C)(C)N1CCC(c2cc(-c3ccc(F)cc3Cl)c3cc[n+]([O-])c(-c4c(Cl)cccc4Cl)c3n2)CC1` [compound 2], the remaining activity at 10 µM amounted to 104% on p70S6K; 94% at PKCε; 101% at mTOR (10 μM); 107% at PRAK; 110% at MuSK.
The corresponding values for `Cc1ccc(C(=O)NCC2CC2)cc1-c1ccc2c(c1)NC(=O)C21CCCC1` [compound 3] are 95%, 102%, 99%, 65% and 106%.
`Cn1cc(-c2cccc(-c3nc(C(=O)NC4C5CC6CC4CC(O)(C6)C5)c(N)nc3N)c2)cn1` (stereo not drawn) [compound 4]: the remaining activity at 10 µM on p70S6K came out at 92%; at PKCε, 87%; on mTOR (10 μM), 13%; at PRAK it was 83%; at MuSK it was 101%. 10 µM produced 87% inhibition at mTOR (10 μM). For the same molecule, the IC50 at mTOR (biochemical dose response, duplicate, read-out: Inhibition of indicated activity (IC50, μM): mTOR) was ~1 µM and 0.964 µM.
As for `CS(=O)(=O)N1CCN(c2ccc(Nc3ncc(C(N)=O)c(NC4CC4)n3)cc2)CC1` [compound 5], the remaining activity at 10 µM at p70S6K worked out at 54%; on PKCε it was 54%; on mTOR (10 μM), 96%; at PRAK, 85%; at MuSK, 60%.
As to `COc1c(NC(=O)c2ccc(C)c(-c3nnc4c(NCC(C)(C)C)nccn34)c2)cc(C(C)(C)C)cc1NS(C)(=O)=O` [compound 7, reference compound], the remaining activity at 10 µM was 102% on p70S6K; 100% on PKCε; 96% at mTOR (10 μM); 56% on PRAK; 104% at MuSK.
